Reference: ChEMBL document CHEMBL5727000, “Carboxamide or sulfonamide substituted thiazoles and related derivatives as modulators for the orphan nuclear receptor ROR[γ]” (2019)
Where “and” joins values, the source holds several entries; their conditions need not be identical. Identical values can stand only once.

experiment: RORgamma Gal4 Reporter Gene Assay (REN): Cells were incubated for additional 16 h before renilla (REN) luciferase activities were measured sequentially in the same cell extract using a Dual-Light-Luciferase-Assay system (Dyer et al., Anal. Biochem. 2000, 282:158). All experiments were done at least in triplicates.

Structure (SMILES)	IC50
CC(C)(C)NS(=O)(=O)c1ccc(-c2sc(C(=O)N[C@H]3C[C@H](C(=O)O)C3)nc2CC2CCCCC2)c(C(F)F)c1Cl	3.16 nM
CC(C)(C)NS(=O)(=O)c1ccc(-c2sc(C(=O)NC3CCS(=O)(=O)CC3)nc2CC2CCCCC2)c2ccncc12	12.6 nM
CC(C)(C)NS(=O)(=O)c1ccc(-c2sc(C(=O)NCC3(O)CCOCC3)nc2CC2CCCCC2)cc1C(C)(C)O	20 nM
CC(C)(C)NS(=O)(=O)c1ccc(-c2sc(C(=O)NN3CCS(=O)(=O)CC3)nc2CC2CCCCC2)c(Cl)c1Cl	2 nM
CC(C)(C)NS(=O)(=O)c1ccc(-c2sc(C(=O)N[C@H]3C[C@H](C(=O)O)C3)nc2CC2CCCCC2)c2c1CCC2	3.16 nM
CC(C)(O)c1cc(-c2sc(C(=O)N[C@H]3C[C@H](C(=O)O)C3)nc2CC2CCCCC2)cc(C2(C)CC2)c1	79.4 nM
CC(C)(C)NS(=O)(=O)c1ccc(-c2sc(C(=O)NC3CCOCC3)nc2CC2CCCCC2)cc1C(C)(C)O	20 nM
CC(C)(C)NS(=O)(=O)c1ccc(-c2sc(C(=O)NN3CCOCC3)nc2CC2CCCCC2)c(Cl)c1Cl	2 nM
CC(C)(C)NS(=O)(=O)c1ccc(-c2oc(C(=O)N[C@H]3C[C@H](C(=O)NS(C)(=O)=O)C3)nc2CC2CCCCC2)c2ccccc12	200 nM
CN(C(=O)c1nc(CC2CCCCC2)c(-c2cc(C(C)(C)C)cc(C3(C)CC3)c2)s1)C1CCOCC1	126 nM
CC(C)(C)NS(=O)(=O)c1ccc(-c2sc(S(N)(=O)=O)nc2CC2CCCCC2)cc1C(C)(C)C	251 nM
CC(C)(C)c1cc(-c2sc(C(=O)N[C@H]3C[C@H](C(=O)O)C3)nc2CC2CCCCC2)cc(C(C)(F)F)c1	39.8 nM
CC(C)(C)c1cc(-c2sc(S(N)(=O)=O)nc2CC2CCCCC2)cc(C(C)(C)C)c1	398 nM
CC(C)(C)NS(=O)(=O)c1ccc(-c2sc(C(=O)NC3CCS(=O)(=O)CC3)nc2-c2cccc(Cl)c2)c2ccccc12	6.31 nM
CC(C)(C)c1cc(-c2nc(C(N)=O)sc2CC2CCCCC2)cc(C(C)(C)C)c1	1580 nM
CC(C)(C)NS(=O)(=O)c1ccc(-c2sc(C(=O)NC3CSC3)nc2CC2CCCCC2)c(Cl)c1Cl	2 nM
CC(C)(O)c1cc(-c2sc(C(=O)N[C@H]3C[C@@H](C(=O)O)C3)nc2CC2CCCCC2)cc(C2(C)CC2)c1	63.1 nM
COC(c1nc(C(=O)NC2CCOCC2)sc1-c1cc(C(C)(C)C)cc(C2(C)CC2)c1)C1CCCCC1 (stereo not given)	79.4 nM
CC(C)(C)NS(=O)(=O)c1ccc(-c2sc(C(=O)NCC3(C(=O)O)CCOCC3)nc2CC2CCCCC2)c(Cl)c1Cl	39.8 nM
CC(C)(C)NS(=O)(=O)c1ccc(-c2oc(C(=O)NC3CCOCC3)nc2CC2CCCCC2)cc1C(C)(C)C	501 nM
CC1CCN(C(=O)c2nc(C(=O)N3CC4(CCOCC4)C3)sc2-c2ccc(S(=O)(=O)NC(C)(C)C)c3ccccc23)CC1	63.1 nM
CC(C)(C)NS(=O)(=O)c1ccc(-c2sc(C(=O)NCCN3CCOCC3)nc2CC2CCCCC2)cc1C(C)(C)O	200 nM
CCC(C)(C)NS(=O)(=O)c1ccc(-c2sc(C(=O)NCc3ncc(S(C)(=O)=O)s3)nc2C(=O)N2CCC(C)CC2)c(Cl)c1C	20 nM
CC(C)(C)NS(=O)(=O)c1ccc(-c2sc(C(=O)N[C@H]3C[C@H](C(=O)O)C3)nc2C2CCCCC2)c2ccccc12	10 nM
CC1CC(C)CN(C(=O)c2nc(C(=O)NCC(C)(C)O)sc2-c2ccc(S(=O)(=O)NC(C)(C)C)c3ccccc23)C1 (stereo not given)	126 nM

Structure (SMILES)	IC50
CC1CCN(C(=O)c2nc(C(=O)N3CC4(CCS(=O)(=O)CC4)C3)sc2-c2ccc(S(=O)(=O)NC(C)(C)C)c3ccccc23)CC1	251 nM
CC(C)(C)NS(=O)(=O)c1ccc(-c2sc(C(=O)NC3CCS(=O)(=O)CC3)nc2CC2CCCCC2)c(Cl)c1Cl	2 nM
CC(C)(C)NS(=O)(=O)c1ccc(-c2sc(C(=O)NC3CCS(=O)(=O)CC3)nc2CC2CCCCC2)c2ccccc12	1 nM
CC(C)(C)NS(=O)(=O)c1ccc(-c2sc(C(=O)NC3CSC3)nc2CC2CCCCC2)c2ccccc12	2 nM
O=C(c1nc(CC2CCCCC2)c(-c2ccc(S(=O)(=O)NC3CS(=O)(=O)C3)c3ccccc23)s1)N1CC2(CCS(=O)(=O)CC2)C1	398 nM
CC(C)(C)NS(=O)(=O)c1ccc(-c2sc(C(=O)N[C@H]3C[C@H](C(=O)O)C3)nc2CC2CCCCC2)cc1C(F)(F)F	10 nM
C[C@H](NS(=O)(=O)c1ccc(-c2sc(C(=O)NCC(C)(C)O)nc2CC2CCC2)c(Cl)c1)C(F)(F)F	12.6 nM
CC1(NC(=O)c2cc(-c3sc(C(=O)NC4CCS(=O)(=O)CC4)nc3CC3CCCCC3)cc(C3(C)CC3)c2)COC1	12.6 nM
Cc1c(C(=O)NC(C)(C)C)cc(-c2sc(C(=O)N[C@H]3C[C@H](C(=O)O)C3)nc2CC2CCCCC2)cc1C1(C)CC1	158 nM
CC(C)(O)CNC(=O)c1nc(CC2CCCCC2)c(-c2ncc(S(=O)(=O)NC(C)(C)C)c3ccccc23)s1	20 nM
CC(C)(C)NS(=O)(=O)c1ccc(-c2sc(C(=O)NC3CCS(=O)(=O)CC3)nc2C2CCCCC2)c2ccccc12	6.31 nM
CCC1CCN(C(=O)c2nc(C(=O)NCC(C)(C)O)sc2-c2ccc(S(=O)(=O)NC(C)(C)C)c3ccccc23)CC1	31.6 nM
C[C@H](NC(=O)c1cc(-c2sc(C(=O)NCC(C)(C)c3nnn[nH]3)nc2CC2CCCCC2)cc(C2(C)CC2)c1)C(F)(F)F	31.6 nM
CC(C)(C)NS(=O)(=O)c1ccc(-c2sc(C(=O)NC3C[S+]([O-])C3)nc2CC2CCCCC2)cc1C(C)(C)O (stereo not given)	10 nM and 50.1 nM
COC(c1nc(C(=O)N[C@H]2C[C@H](C(=O)O)C2)sc1-c1cc(C(C)(C)C)cc(C2(C)CC2)c1)C1CCCCC1 (stereo not given in full)	100 nM
CC1CCCCN1C(=O)c1nc(C(=O)NCC(C)(C)O)sc1-c1ccc(S(=O)(=O)NC(C)(C)C)c2ccccc12 (stereo not given)	50.1 nM
CC(C)(C)NS(=O)(=O)c1ccc(-c2sc(C(=O)NC3CCS(=O)(=O)CC3)nc2CC2CCC2)c2ccccc12	3.98 nM
CC(C)(C)NS(=O)(=O)c1ccc(-c2sc(C(=O)N[C@H]3C[C@H](C(=O)O)C3)nc2CC2CCCCC2)cc1C(C)(C)O	10 nM
CC1(c2cc(-c3sc(C(=O)N[C@H]4C[C@H](C(=O)O)C4)nc3CC3CCCCC3)cc(C(F)(F)F)c2)CC1	79.4 nM
COC(c1nc(C(=O)NC2CCOCC2)sc1-c1ccc(S(=O)(=O)NC(C)(C)C)c(C(C)(C)C)c1)C1CCCCC1 (stereo not given)	200 nM
CNS(=O)(=O)c1ccc(-c2sc(C(=O)N3CC4(CCS(=O)(=O)CC4)C3)nc2CC2CCCCC2)c2ccccc12	251 nM
CC(C)(C)c1cc(-c2cc(C(N)=O)ccc2CC2CCCCC2)cc(C(C)(C)C)c1	501 nM
CC(C)(C)NS(=O)(=O)c1ccc(-c2sc(C(=O)NC34CCC(C(=O)O)(CC3)CC4)nc2CC2CCCCC2)c2ccccc12	6.31 nM
CC(C)(C)NS(=O)(=O)c1ccc(-c2sc(C(=O)NCCC(C)(C)C(=O)O)nc2CC2CCCCC2)c(Cl)c1Cl	6.31 nM
CC(C)COc1cc(-c2sc(C(=O)N[C@H]3C[C@H](C(=O)O)C3)nc2CC2CCCCC2)cc(C(C)(C)C)n1	39.8 nM

Structure (SMILES)	IC50
CC(C)(C)c1cc(-c2oc(C(N)=O)nc2CC2CCCCC2)cc(C(C)(C)C)c1	1580 nM
CC(C)(C)NS(=O)(=O)c1ccc(-c2oc(C(=O)NC34CCC(C(=O)O)(CC3)CC4)nc2CC2CCCCC2)c2ccccc12	12.6 nM
CC(C)(CCNC(=O)c1nc(CC2CCCCC2)c(-c2cc(C(C)(C)C)cc(C3(C)CC3)c2)s1)C(=O)O	100 nM
CC(C)(C)c1cc(-c2ccc(C(N)=O)cc2CC2CCCCC2)cc(C(C)(C)C)c1	631 nM
CC(C)(C)NS(=O)(=O)c1ccc(-c2nc(C(=O)NC3CCS(=O)(=O)CC3)sc2CC2CCCCC2)c2ccccc12	1 nM
CCCc1nc(C(=O)NCC(C)(C)O)sc1-c1ccc(S(=O)(=O)N[C@@H](C)C(F)(F)F)c2ccccc12	12.6 nM
CC(C)(CO)NS(=O)(=O)c1ccc(-c2sc(C(=O)N3CC4(CCS(=O)(=O)CC4)C3)nc2CC2CCCCC2)c2ccccc12	79.4 nM
CC(C)(C)NS(=O)(=O)c1ccc(-c2sc(C(=O)NC3COC3)nc2CC2CCCCC2)c(Cl)c1Cl	3.16 nM
CC(C)(C)c1cc(-c2nc(C(=O)NC3CCS(=O)(=O)CC3)oc2CC2CCCCC2)cc(C2(C)CC2)c1	251 nM
CC(O)c1c(S(=O)(=O)NC(C)(C)C)ccc(-c2sc(C(=O)N3CC4(CCS(=O)(=O)CC4)C3)nc2CC2CCCCC2)c1Cl (stereo not given)	200 nM
CC(C)(C)NS(=O)(=O)c1ccc(-c2sc(C(=O)NC3CCC(C(=O)O)C3)nc2CC2CCCCC2)c2ccccc12 (stereo not given)	3.98 nM
CC(C)(C)NS(=O)(=O)c1ccc(-c2sc(C(=O)NC3CCS(=O)(=O)CC3)nc2CC2CC2)c(Cl)c1Cl	31.6 nM
CC(C)(CNC(=O)c1nc(CC2CCCCC2)c(-c2cc(C(C)(C)C)cc(C3(C)CC3)c2)o1)C(=O)O	251 nM
C[C@H](NS(=O)(=O)c1ccc(-c2sc(C(=O)NCC(C)(C)O)nc2CC2CCC2)c(C(F)(F)F)c1)C(F)(F)F	20 nM
CC(C)(C#N)CNC(=O)c1nc(CC2CCCCC2)c(-c2ccc(S(=O)(=O)NC(C)(C)C)c3ccccc23)s1	2 nM
CC1CCN(C(=O)c2nc(C(=O)NCC(C)(C)O)sc2-c2ccc(S(=O)(=O)N[C@@H](C)C(F)(F)F)c3ccccc23)CC1	20 nM
COCC(C)(C)NS(=O)(=O)c1ccc(-c2sc(C(=O)N3CC4(CCS(=O)(=O)CC4)C3)nc2CC2CCCCC2)c2ccccc12	39.8 nM
CC(C)(C)NS(=O)(=O)c1ccc(-c2sc(C(=O)N3CC(C(C)(C)C(=O)O)C3)nc2CC2CCCCC2)c(Cl)c1Cl	126 nM
O=C(NC1CCS(=O)(=O)CC1)c1nc(CC2CCCCC2)c(-c2ccc(N3CCOCC3)c3ccccc23)s1	126 nM
CC(C)(C)NS(=O)(=O)c1ccc(-c2nc(C(=O)NC34CCC(C(=O)O)(CC3)CC4)oc2CC2CCCCC2)c2ccccc12	39.8 nM
CC(C)(C)NS(=O)(=O)c1ccc(-c2sc(C(=O)NCCC(C)(C)C(=O)O)nc2CC2CCCCC2)cc1C(F)(F)F	39.8 nM
CC(C)(C)NS(=O)(=O)c1ccc(-c2sc(C(=O)NC3CC3)nc2CC2CCCCC2)c(Cl)c1Cl	10 nM
CC(C)(C)c1cc(-c2oc(C(=O)NC3CCOCC3)nc2CC2CCCCC2)cc(C2(C)CC2)c1	126 nM
CCC(C)(C)NS(=O)(=O)c1ccc(-c2sc(C(=O)NCC(C)(C)O)nc2C(=O)N2CCC(C)CC2)c(Cl)c1C	3.16 nM
CC(C)(C)NS(=O)(=O)c1ccc(-c2sc(C(=O)NC3CS(=O)(=O)C3)nc2CC2CCCCC2)cc1C(C)(C)O	12.6 nM
